Measurements published in PMC6013482, “Conformational switching of the pseudokinase domain promotes human MLKL tetramerization and cell death by necroptosis” (Nature Communications, 2018).
Positions count from the first letter of the chain named.

Tests used:
Format in all cases: binding
MLKL [1] = biological target: T1, MLKL (Homo sapiens, UniProt Q8NB16, S358E/T357E); test: thermal shift assay with ATP titration
T1 construct: full-length hMLKL(2–471)
T1 sequence (Q8NB16 2-471 T357E/S358E): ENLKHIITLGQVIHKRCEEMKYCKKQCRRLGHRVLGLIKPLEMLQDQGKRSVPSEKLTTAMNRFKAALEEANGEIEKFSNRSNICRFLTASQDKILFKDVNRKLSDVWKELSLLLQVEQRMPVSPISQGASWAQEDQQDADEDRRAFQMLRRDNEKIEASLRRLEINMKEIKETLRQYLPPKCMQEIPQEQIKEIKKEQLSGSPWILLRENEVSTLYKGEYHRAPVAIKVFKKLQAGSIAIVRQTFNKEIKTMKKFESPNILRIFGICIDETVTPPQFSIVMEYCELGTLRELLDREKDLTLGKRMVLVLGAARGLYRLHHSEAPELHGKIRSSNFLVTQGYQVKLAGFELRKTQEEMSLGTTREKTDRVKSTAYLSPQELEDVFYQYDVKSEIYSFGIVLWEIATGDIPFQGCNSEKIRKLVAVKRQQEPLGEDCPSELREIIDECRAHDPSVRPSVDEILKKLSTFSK

MLKL [2] = biological target: T2, MLKL (Homo sapiens, UniProt Q8NB16, E258K); test: thermal shift assay with ATP titration
T2 construct: full-length hMLKL(2–471)
T2 sequence (Q8NB16 2-471 E258K): T1 sequence (Q8NB16 2-471 T357E/S358E) with E257K, E356T, E357S

MLKL [3] = biological target: T3, MLKL (Homo sapiens, UniProt Q8NB16, G330E); test: thermal shift assay with ATP titration
T3 construct: full-length hMLKL(2–471)
T3 sequence (Q8NB16 2-471 G330E): T1 sequence (Q8NB16 2-471 T357E/S358E) with G329E, E356T, E357S

MLKL [4] = biological target: T4, MLKL (Homo sapiens, UniProt Q8NB16, E351K); test: thermal shift assay with ATP titration; HDX-MS protection around the ATP pocket
T4 construct: full-length hMLKL(2–471)
T4 sequence (Q8NB16 2-471 E351K): T1 sequence (Q8NB16 2-471 T357E/S358E) with E350K, E356T, E357S

MLKL [5] = biological target: T5, MLKL (Homo sapiens, UniProt Q8NB16, K157A); test: thermal shift assay with ATP titration
T5 construct: full-length hMLKL(2–471)
T5 sequence (Q8NB16 2-471 K157A): T1 sequence (Q8NB16 2-471 T357E/S358E) with K156A, E356T, E357S

MLKL [6] = biological target: T6, MLKL (Homo sapiens, UniProt Q8NB16, D107A/E111A); test: thermal shift assay with ATP titration
T6 construct: full-length hMLKL(2–471)
T6 sequence (Q8NB16 2-471 D107A/E111A): T1 sequence (Q8NB16 2-471 T357E/S358E) with D106A, E110A, E356T, E357S

MLKL [7] = biological target: T7, MLKL (Homo sapiens, UniProt Q8NB16); test: thermal shift assay (SYPRO Orange) with ATP titration, no divalent cations; supported by AUC
T7 construct: full-length hMLKL(2–471)
T7 sequence (Q8NB16 2-471): T1 sequence (Q8NB16 2-471 T357E/S358E) with E356T, E357S

Q: For `Nc1ncnc2c1ncn2[C@@H]1O[C@H](COP(=O)(O)OP(=O)(O)OP(=O)(O)O)[C@@H](O)[C@H]1O` [ATP], which Kd (MLKL [1]) is on record?
A: 56 ± 8 µM

Q: What about the Kd (MLKL [2]) of the same compound?
A: 24 ± 2 µM

Q: What about the Kd (MLKL [3]) of the same compound?
A: 28 ± 6 µM

Q: And the Kd (MLKL [4])?
A: 26 ± 6 µM

Q: And the Kd (MLKL [5])?
A: 164 ± 31 µM

Q: And the Kd (MLKL [6])?
A: 23 ± 2 µM

Q: What about the Kd (MLKL [7]) of the same compound?
A: 36 ± 4 µM
